Reference: patent publication US20240156104A1, “FUNGI-DERIVED COMPOSITION, ITS PRODUCTION PROCESS AND USES” (NATURAL RESOURCES INSTITUTE FINLAND (LUKE), priority 2021, published 2024)

Tested on: coxsackievirus A9 (CVA9)
Test: cytopathic effect (CPE) inhibition assay against CVA9 in A549 cells
Type: cell-based
Conditions: virus treated 37° C. 1 hour; for antiviral activity of commercial ganoderic acid against CVA9 (FIG. 10A): 100 μM, 500 μM, 1 mM, 5 mM and 10 mM; for antiviral activity of commercial ganoderic acids against CVA9 (FIG. 10B): 12.5 μM, 25 μM, 50 μM, 100 μM and 500 μM, MOI 100

SMILES: C[C@H](CC(=O)C[C@@H](C)[C@H]1C[C@H](O)[C@@]2(C)C3=C(C(=O)C[C@]12C)[C@@]1(C)CCC(=O)C(C)(C)[C@@H]1C[C@@H]3O)C(=O)O [GA A, Ganoderic Acid A]
- antiviral activity of commercial ganoderic acid against CVA9 (FIG. 10A) (MOI 66.7): fails to demonstrate any antiviral activity
- antiviral activity of commercial ganoderic acid against CVA9 (FIG. 10A) (MOI 66.7, listed as Ganoderic Acid A): does not possess any antiviral activity

SMILES: C/C(=C\CC[C@@H](C)[C@H]1C[C@H](O)[C@@]2(C)C3=CC[C@H]4C(C)(C)C(=O)CC[C@]4(C)C3=CC[C@]12C)C(=O)O [GA TR, Ganoderic Acid TR]
- antiviral activity of commercial ganoderic acids against CVA9 (FIG. 10B): fails to demonstrate any antiviral activity

SMILES: CC(=O)O[C@H]1C[C@H]([C@H](C)CC/C=C(\C)C(=O)O)[C@@]2(C)CC=C3C(=CC[C@H]4C(C)(C)C(=O)CC[C@]34C)[C@]12C [GA TQ, Ganoderic Acid TQ]
- antiviral activity of commercial ganoderic acids against CVA9 (FIG. 10B): fails to demonstrate any antiviral activity

SMILES: C/C(=C\CC[C@@H](C)[C@H]1CC[C@@]2(C)C3=CC[C@H]4C(C)(C)[C@@H](O)CC[C@]4(C)C3=CC[C@]12C)C(=O)O [GA Y, Ganoderic Acid Y]
- antiviral activity of commercial ganoderic acids against CVA9 (FIG. 10B): fails to demonstrate any antiviral activity
